The test system of this assay is LTB4 biosynthesis in human whole blood. Briefly: calcium ionophore-induced LTB4 biosynthesis in human whole blood. The assay is classed as cell-based. To be noted: at 13 nM; human heparinized whole blood, calcium ionophore A23187 challenge, LTB4 by radioimmunoassay; read-out: Inhibition of leukotriene biosynthesis. How it is done:
Inhibition of leukotriene biosynthesis was evaluated in an assay, involving calcium ionophore-induced LTB4 biosynthesis expressed human whole blood. Human heparinized whole blood was preincubated with test compounds or vehicle for 15 min at 37° C. followed by calcium ionophore A23 187 challenge (final concentration of 8.3/μM) and the reaction terminated after 30 min by adding two volumes of methanol containing prostaglandin B2 as an internal recovery standard. The methanol extract was analyzed for LTB4 using a commercially available radioimmunoassay.

As to `CON=C(c1cccc(COc2ccc3c(-c4ccc(F)cc4)c4c(cc3c2)C(=O)OC4)c1)[C@H]1COC(C)(C)O1` [Example 1, O-methylE- and Z-(4"S)-7-[(3'-((2",2"-dimethyl-1",3"-dioxolan-4"-yl)oximinomethyl)phenyl)oxymethylene]-4-(4-fluorophenyl)naptho[2,3-c]furan-1(3H)-one], the inhibition (commonly the relative decrease from the control value, in per cent) at 0.013 µM turned out to be 52%.

For the origin of these results see patent publication US5446055A, “Polyether naphthalenic lignan lactones as inhibitors of 5-lipoxygenase” (Abbott Laboratories, priority 1994, dated 1995).
